This passage reports GI50 and TGI results from PubChem BioAssay (NCI).

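Tested at 5 concentrations; 48 h exposure; 96-well plates; endpoints linearly interpolated, else capped at highest concentration. GI50: concentration for 50% inhibition of growth. Definition used: TGI = concentration required for complete inhibition of growth.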

The first experiment deals with SF-539 CNS. The experiment is described as follows: NCI anticancer screen, dose series, 48 h.
As for `CCN(CC)CC(C)Nc1ccc([N+](=O)[O-])c2sc3ccccc3c(=O)c12` (centres undefined), the GI50 was 2000 nM and the TGI came out at 7.56 µM.
For `N=C(N)c1ccc(-c2ccc(-c3cc(Cl)cc(Cl)c3)o2)nc1` the same measures were 1760 nM and 3.25 µM.
The compound `CNC(=O)OC(C)CN1c2ccccc2Sc2ccc(Cl)cc21` (centres undefined) came in with a TGI of more than 10 µM.
Turning to `O=C(CCCCCCC(=O)Nc1ccc(N(CCCl)CCCl)cc1)NO`, the GI50 is 2380 nM and the TGI is 14.7 µM.
In turn, `CN1CC[C@@]2(c3cccc(O)c3)CC(=O)/C(=C/c3ccccc3)[C@H]1C2` had a TGI of 35.3 µM.
On the same count and under the same terms, the result for `ONc1ncnc2nc[nH]c12` reads more than 100 µM; that for `CCCc1[nH]c(SCCCCCCCCSc2nc(-c3ccc(F)cc3)c(CCC)[nH]2)nc1-c1ccc(F)cc1`, 27.7 µM; that for `O=S(=O)(O)c1ccc2cccc(N=Nc3c(O)ccc4ccccc34)c2c1`, more than 100 µM.
Take `COc1ccc2nc(-c3ccc(-c4noc(-c5cc(OC)c(OC)c(OC)c5)n4)cc3)[nH]c2c1`: the GI50 was 2000 nM and the TGI worked out at 3.83 µM.
On the same counts, the results for `COc1ccc(/C(=C2/O[C@@H]([C@H]3COC(C)(C)O3)[C@H]3OC(C)(C)O[C@@H]23)c2cc(OC)c(OC)c(OC)c2)cc1O` are 3150 nM and 8.75 µM.
Compound `Cn1c(=O)c2c(nc(-n3nc(-c4ccc(Cl)cc4)cc3N)n2C)n(C)c1=O` yielded a TGI of 69.4 µM.
`N=c1c2c(C(N)=O)cn(C3OC(CO)C(O)C3O)c2ncn1O` (centres undefined) returned a TGI of 2.02 µM.
Same read-out and setting: the result for `CCS(=O)(=O)Nc1ccc(Nc2c3ccccc3nc3ccccc23)c(OC)c1` reads 4.38 µM.
With `Cc1nc(N)nc(N)c1-c1ccc(Cl)c(Cl)c1`, the TGI was more than 100 µM.
The same measure, in the same setting: the result for `Cc1cccc2nc3c(C(=O)NCCN(C)C)cccc3cc12` reads 4.84 µM; that for `C[C@]12CC[C@@H]3c4ccc(OP(=O)(O)O)cc4CC[C@H]3[C@@H]1CCC2=O`, more than 100 µM.
In turn, `CCSCCC(N)C(=O)O` (centres undefined) gave a TGI of more than 100 µM.
`COc1ccc2nc(N/N=C/C(C)=N/Nc3cc(C)c4cc(OC)ccc4n3)cc(C)c2c1` yielded a TGI of 34.7 µM.
With `CN(C)CC(=O)Nc1ccc(Cn2nnc3c2C(=O)c2nnn(Cc4ccc(NC(=O)CN(C)C)cc4)c2C3=O)cc1`, the GI50 was 197 nM and the TGI was 0.502 µM.

A further experiment has as its system SNB-75 CNS. In words: NCI anticancer screen, dose series, 48 h.
Consider `CCN(CC)CC(C)Nc1ccc([N+](=O)[O-])c2sc3ccccc3c(=O)c12` (centres undefined), for which the GI50 was 3640 nM and the TGI was found to be 17.2 µM.
Consider `N=C(N)c1ccc(-c2ccc(-c3cc(Cl)cc(Cl)c3)o2)nc1`, for which the GI50 is 1640 nM and the TGI was found to be 3.15 µM.
`CCOC(=O)CSc1nc(N)c2c(-c3ccc(OC)c(OC)c3)c3c(nc2n1)CCCC3` returned a TGI of 32.6 µM.
On the same count and under the same terms, the figure for `CNC(=O)OC(C)CN1c2ccccc2Sc2ccc(Cl)cc21` (centres undefined) is more than 10 µM.
`O=C(CCCCCCC(=O)Nc1ccc(N(CCCl)CCCl)cc1)NO`: the GI50 is 1350 nM and the TGI was 10.1 µM.
For the compound `CN1CC[C@@]2(c3cccc(O)c3)CC(=O)/C(=C/c3ccccc3)[C@H]1C2`, the TGI came to 7.09 µM.
Same read-out and setting: the figure for `O=C(N/N=C(/c1ccccc1)C(F)(F)F)c1ccncc1` is more than 100 µM.
Same read-out and setting: the figure for `ONc1ncnc2nc[nH]c12` is more than 100 µM.
Regarding `CCCc1[nH]c(SCCCCCCCCSc2nc(-c3ccc(F)cc3)c(CCC)[nH]2)nc1-c1ccc(F)cc1`, the TGI was found to be 8.5 µM.
The compound `O=S(=O)(O)c1ccc2cccc(N=Nc3c(O)ccc4ccccc34)c2c1` registered a TGI of more than 100 µM.
As for `COc1ccc2nc(-c3ccc(-c4noc(-c5cc(OC)c(OC)c(OC)c5)n4)cc3)[nH]c2c1`, the GI50 is 12500 nM and the TGI is 27.4 µM.
As to `COc1ccc(/C(=C2/O[C@@H]([C@H]3COC(C)(C)O3)[C@H]3OC(C)(C)O[C@@H]23)c2cc(OC)c(OC)c(OC)c2)cc1O`, the GI50 is 6360 nM and the TGI is more than 100 µM.
`N=c1c2c(C(N)=O)cn(C3OC(CO)C(O)C3O)c2ncn1O` (centres undefined): the TGI stood at 4.85 µM.
On the same count and under the same terms, the figure for `CCS(=O)(=O)Nc1ccc(Nc2c3ccccc3nc3ccccc23)c(OC)c1` is 3.01 µM; for `Cc1nc(N)nc(N)c1-c1ccc(Cl)c(Cl)c1` it is more than 76.4 µM; for `Cc1cccc2nc3c(C(=O)NCCN(C)C)cccc3cc12` it is 6.75 µM.
`C[C@]12CC[C@@H]3c4ccc(OP(=O)(O)O)cc4CC[C@H]3[C@@H]1CCC2=O` had a TGI of more than 100 µM.
Still for that read-out and setting: the figure for `CCSCCC(N)C(=O)O` (centres undefined) is more than 100 µM.
As to `COc1ccc2nc(N/N=C/C(C)=N/Nc3cc(C)c4cc(OC)ccc4n3)cc(C)c2c1`, the TGI came to 47.7 µM.
Consider `CN(C)CC(=O)Nc1ccc(Cn2nnc3c2C(=O)c2nnn(Cc4ccc(NC(=O)CN(C)C)cc4)c2C3=O)cc1`, for which the GI50 was 172 nM and the TGI turned out to be 0.342 µM.

The next experiment deals with MDA-MB-231 breast. The experiment is described as follows: NCI anticancer screen, dose series, 48 h.
In the case of `CCN(CC)CC(C)Nc1ccc([N+](=O)[O-])c2sc3ccccc3c(=O)c12` (centres undefined), the GI50 is 2160 nM and the TGI is 9.09 µM.
With `N=C(N)c1ccc(-c2ccc(-c3cc(Cl)cc(Cl)c3)o2)nc1`, the GI50 was 1650 nM and the TGI was 3.3 µM.
In turn, `CCOC(=O)CSc1nc(N)c2c(-c3ccc(OC)c(OC)c3)c3c(nc2n1)CCCC3` showed a TGI of more than 100 µM.
On the same count and under the same terms, the figure for `CNC(=O)OC(C)CN1c2ccccc2Sc2ccc(Cl)cc21` (centres undefined) is more than 10 µM.
Take `O=C(CCCCCCC(=O)Nc1ccc(N(CCCl)CCCl)cc1)NO`: the GI50 is 6990 nM and the TGI came to 52.4 µM.
In turn, `CN1CC[C@@]2(c3cccc(O)c3)CC(=O)/C(=C/c3ccccc3)[C@H]1C2` yielded a TGI of 23.6 µM.
`O=S(=O)(O)c1ccc2cccc(N=Nc3c(O)ccc4ccccc34)c2c1` had a TGI of more than 100 µM.
Consider `COc1ccc2nc(-c3ccc(-c4noc(-c5cc(OC)c(OC)c(OC)c5)n4)cc3)[nH]c2c1`, for which the GI50 was 2650 nM and the TGI turned out to be 13.9 µM.
Regarding `COc1ccc(/C(=C2/O[C@@H]([C@H]3COC(C)(C)O3)[C@H]3OC(C)(C)O[C@@H]23)c2cc(OC)c(OC)c(OC)c2)cc1O`, the GI50 was 9710 nM and the TGI was 50.1 µM.
As to `Cn1c(=O)c2c(nc(-n3nc(-c4ccc(Cl)cc4)cc3N)n2C)n(C)c1=O`, the TGI was more than 100 µM.
Same read-out and setting: the result for `Cc1nc(N)nc(N)c1-c1ccc(Cl)c(Cl)c1` reads more than 100 µM.
The compound `C[C@]12CC[C@@H]3c4ccc(OP(=O)(O)O)cc4CC[C@H]3[C@@H]1CCC2=O` had a TGI of more than 100 µM.
`CCSCCC(N)C(=O)O` (centres undefined) yielded a TGI of more than 100 µM.
The compound `COc1ccc2nc(N/N=C/C(C)=N/Nc3cc(C)c4cc(OC)ccc4n3)cc(C)c2c1` had a TGI of 36.7 µM.

For another experiment, the system named is SK-OV-3 ovarian. The experiment is described as follows: NCI anticancer screen, dose series, 48 h.
Turning to `CCN(CC)CC(C)Nc1ccc([N+](=O)[O-])c2sc3ccccc3c(=O)c12` (centres undefined), the GI50 is 1870 nM and the TGI was found to be 13.2 µM.
Consider `N=C(N)c1ccc(-c2ccc(-c3cc(Cl)cc(Cl)c3)o2)nc1`, for which the GI50 is 1950 nM and the TGI came out at 3.51 µM.
For the compound `CCOC(=O)CSc1nc(N)c2c(-c3ccc(OC)c(OC)c3)c3c(nc2n1)CCCC3`, the TGI is more than 100 µM.
Compound `CNC(=O)OC(C)CN1c2ccccc2Sc2ccc(Cl)cc21` (centres undefined) displayed a TGI of more than 10 µM.
As to `O=C(CCCCCCC(=O)Nc1ccc(N(CCCl)CCCl)cc1)NO`, the GI50 is 3760 nM and the TGI came to 15.9 µM.
Compound `O=C(N/N=C(/c1ccccc1)C(F)(F)F)c1ccncc1` registered a TGI of more than 100 µM.
Turning to `O=S(=O)(O)c1ccc2cccc(N=Nc3c(O)ccc4ccccc34)c2c1`, the TGI was more than 100 µM.
For the compound `COc1ccc2nc(-c3ccc(-c4noc(-c5cc(OC)c(OC)c(OC)c5)n4)cc3)[nH]c2c1`, the GI50 is 25300 nM and the TGI is 64.8 µM.
For `COc1ccc(/C(=C2/O[C@@H]([C@H]3COC(C)(C)O3)[C@H]3OC(C)(C)O[C@@H]23)c2cc(OC)c(OC)c(OC)c2)cc1O` the same measures were 12600 nM and 91.7 µM.
With `Cn1c(=O)c2c(nc(-n3nc(-c4ccc(Cl)cc4)cc3N)n2C)n(C)c1=O`, the TGI is 91 µM.
`N=c1c2c(C(N)=O)cn(C3OC(CO)C(O)C3O)c2ncn1O` (centres undefined) had a TGI of more than 36.3 µM.
`CCS(=O)(=O)Nc1ccc(Nc2c3ccccc3nc3ccccc23)c(OC)c1` returned a TGI of 5.89 µM.
Same read-out and setting: the figure for `Cc1nc(N)nc(N)c1-c1ccc(Cl)c(Cl)c1` is more than 100 µM.
The same measure, in the same setting: the result for `Cc1cccc2nc3c(C(=O)NCCN(C)C)cccc3cc12` reads 7.9 µM; that for `C[C@]12CC[C@@H]3c4ccc(OP(=O)(O)O)cc4CC[C@H]3[C@@H]1CCC2=O`, more than 100 µM.
For the compound `CCSCCC(N)C(=O)O` (centres undefined), the TGI was more than 100 µM.
Consider `COc1ccc2nc(N/N=C/C(C)=N/Nc3cc(C)c4cc(OC)ccc4n3)cc(C)c2c1`, for which the TGI is more than 100 µM.
As to `CN(C)CC(=O)Nc1ccc(Cn2nnc3c2C(=O)c2nnn(Cc4ccc(NC(=O)CN(C)C)cc4)c2C3=O)cc1`, the GI50 was 94.9 nM and the TGI turned out to be 0.222 µM.

The subject of the next experiment is HCT-116 colon. In words: NCI anticancer screen, dose series, 48 h.
In the case of `CCN(CC)CC(C)Nc1ccc([N+](=O)[O-])c2sc3ccccc3c(=O)c12` (centres undefined), the GI50 was 1410 nM and the TGI worked out at 4.49 µM.
Turning to `CCOC(=O)CSc1nc(N)c2c(-c3ccc(OC)c(OC)c3)c3c(nc2n1)CCCC3`, the TGI was more than 100 µM.
Consider `CNC(=O)OC(C)CN1c2ccccc2Sc2ccc(Cl)cc21` (centres undefined), for which the TGI is more than 10 µM.
For `O=C(CCCCCCC(=O)Nc1ccc(N(CCCl)CCCl)cc1)NO`, the GI50 is 1970 nM and the TGI came to 12.9 µM.
The compound `CN1CC[C@@]2(c3cccc(O)c3)CC(=O)/C(=C/c3ccccc3)[C@H]1C2` came in with a TGI of 12.5 µM.
Take `O=C(N/N=C(/c1ccccc1)C(F)(F)F)c1ccncc1`: the TGI is more than 100 µM.
On the same count and under the same terms, the result for `ONc1ncnc2nc[nH]c12` reads more than 100 µM; that for `CCCc1[nH]c(SCCCCCCCCSc2nc(-c3ccc(F)cc3)c(CCC)[nH]2)nc1-c1ccc(F)cc1`, more than 100 µM.
`O=S(=O)(O)c1ccc2cccc(N=Nc3c(O)ccc4ccccc34)c2c1` gave a TGI of more than 100 µM.
As to `COc1ccc2nc(-c3ccc(-c4noc(-c5cc(OC)c(OC)c(OC)c5)n4)cc3)[nH]c2c1`, the GI50 is 1900 nM and the TGI was 10.7 µM.
Compound `Cn1c(=O)c2c(nc(-n3nc(-c4ccc(Cl)cc4)cc3N)n2C)n(C)c1=O` registered a TGI of more than 100 µM.
Compound `N=c1c2c(C(N)=O)cn(C3OC(CO)C(O)C3O)c2ncn1O` (centres undefined) registered a TGI of 0.596 µM.
As for `CCS(=O)(=O)Nc1ccc(Nc2c3ccccc3nc3ccccc23)c(OC)c1`, the TGI turned out to be 6.94 µM.
Same read-out and setting: the result for `Cc1nc(N)nc(N)c1-c1ccc(Cl)c(Cl)c1` reads more than 100 µM; that for `Cc1cccc2nc3c(C(=O)NCCN(C)C)cccc3cc12`, 6.21 µM; that for `C[C@]12CC[C@@H]3c4ccc(OP(=O)(O)O)cc4CC[C@H]3[C@@H]1CCC2=O`, more than 100 µM.
As to `CCSCCC(N)C(=O)O` (centres undefined), the TGI is more than 100 µM.
`COc1ccc2nc(N/N=C/C(C)=N/Nc3cc(C)c4cc(OC)ccc4n3)cc(C)c2c1` showed a TGI of 28.6 µM.
Regarding `CN(C)CC(=O)Nc1ccc(Cn2nnc3c2C(=O)c2nnn(Cc4ccc(NC(=O)CN(C)C)cc4)c2C3=O)cc1`, the GI50 is 84.3 nM and the TGI was found to be 0.275 µM.

Another experiment deals with CAKI-1 renal. In words: NCI anticancer screen, dose series, 48 h.
With `CCN(CC)CC(C)Nc1ccc([N+](=O)[O-])c2sc3ccccc3c(=O)c12` (centres undefined), the GI50 was 657 nM and the TGI stood at 4.09 µM.
